pIC50: −log10 of the molar value.
Experiments:
KRAS (G12C)::SOS1 = molecular target: T1, KRAS (G12C)::SOS1 (Homo sapiens, UniProt P01116, C118S/C51S/C80L/G12C); assay: KRAS::SOS1 AlphaScreen binding assay, KRAS G12C; conditions: read-out: KRASG12C IC50
T1 construct: KRAS (G12C) 1-169, N-terminal 6His-tag for purification, cleaved off; 6His-tag (N, cleaved yes); made in house
Description: (§1) This assay can be used to examine the potency with which compounds according to the invention binding to (mutated) KRAS inhibit the protein-protein interaction between SOS1 and (mutated) KRAS e.g., KRAS WT, KRAS G12C, KRAS G12D, KRAS G12V, KRAS G13D. […] Low IC50 values in this assay setting are indicative of strong inhibition of protein-protein interaction between SOS1 and KRAS:
(§2) These assays measure the inhibitory effect of compounds on KRAS mutant protein-protein interactions using the Alpha Screen technology by Perkin Elmer
(§3) The following (mutant) enzyme forms of KRAS and interacting proteins are used in these assays at the given concentrations: • KRAS (G12D) 1-169, N-terminal 6His-tag, C-terminal avi-tag (Xtal BioStructures, Inc.); final assay concentration 10 nM and SOS1 564-1049, N-terminal 229 GST-tag, TEV cleavage site (Viva Biotech Ltd); final assay concentration 5 nM; • KRAS (G12C) 1-169, N-terminal 6His-tag for purification, cleaved off, C-terminal avi-tag, biotinylated, mutations: C51S, C80L, C118S (in house); final assay concentration 7.5 nM and SOS1 564-1049, N-terminal 229 GST-tag, TEV cleavage site (Viva Biotech Ltd); final assay concentration 5 nM; • KRAS (G12V) 1-169, N-terminal 6His-tag for purification, cleaved off, C-terminal avi-tag, biotinylated, TEV cleavage site, mutation: C118S, GDP loaded (in house); final assay concentration 10 nM and SOS1 564-1049, N-terminal 229 GST-tag, TEV cleavage site (Viva Biotech Ltd); final assay concentration 10 nM; • KRAS (G13D) 1-169, N-terminal 6His-tag for purification, cleaved off, C-terminal avi-tag, biotinylated, TEV cleavage site, mutation: C118S, GDP loaded (in house); final assay concentration 10 nM and SOS1 564-1049, N-terminal 229 GST-tag, TEV cleavage site (Viva Biotech Ltd); final assay concentration 10 nM; • KRAS (WT) 1-169, N-terminal 6His-tag for purification, cleaved off, C-terminal avi-tag, biotinylated, TEV cleavage site, mutation: C118S, GDP loaded (in house); final assay concentration 10 nM and SOS1 564-1049, N-terminal 229 GST-tag, TEV cleavage site (Viva Biotech Ltd); final assay concentration 10 nM.
(§4) Test compounds dissolved in DMSO are dispensed onto assay plates (Proxiplate 384 PLUS, white, PerkinElmer; 6008289) using an Access Labcyte Workstation with the Labcyte Echo 55×. For the chosen highest assay concentration of 100 μM, 150 nL of compound solution are transferred from a 10 mM DMSO compound stock solution. A series of eleven fivefold dilutions per compound are transferred to the assay plate, compound dilutions are tested in duplicates. DMSO are added as backfill to a total volume of 150 nL.
(§5) The assays run on a fully automated robotic system in a darkened room below 100 Lux. To 150 nl of compound dilution 10 μl of a mix including KRAS mutant protein, SOS1 (final assay concentrations see above) and GDP nucleotide (Sigma G7127; final assay concentration 10 μM) in assay buffer (1×PBS, 0.1% BSA, 0.05% Tween 20) are added into columns 1-24.
(§6) After 30 minutes incubation time 5 μl of Alpha Screen bead mix in assay buffer are added into columns 1-23. Bead mix consists of AlphaLISA Glutathione Acceptor Beads (PerkinElmer, Cat No AL109) and AlphaScreen Streptavidin Donor Beads (PerkinElmer Cat No 6760002) in assay buffer at a final assay concentration of 10 μg/ml each.
(§7) Plates are kept at room temperature in a darkened incubator. After an additional 60 minutes incubation time the signal is measured in a PerkinElmer Envision HTS Multilabel Reader using the AlphaScreen specs from PerkinElmer.
(§8) Each plate contains up to 16 wells of a negative control depending on the dilution procedure (platewise or serial) (DMSO instead of test compound; with KRAS mutant::SOS1 GDP mix and bead mix; column 23) and 16wells of a positive control (DMSO instead of test compound; with KRAS mutant::SOS1 GDP mix w/o bead mix; column 24).
(§9) As internal control known inhibitors of KRAS mutant::SOS1 interaction can be measured on each compound plate. […]

KRAS (G12V)::SOS1 = molecular target: T2, KRAS (G12V)::SOS1 (Homo sapiens, UniProt P01116, C118S/G12V); assay: KRAS::SOS1 AlphaScreen binding assay, KRAS G12V
T2 construct: KRAS (G12V) 1-169, N-terminal 6His-tag for purification, cleaved off; 6His-tag (N, cleaved yes); TEV cleavage site; made in house
Description: as §1, §2, §3, §4, §5, §6, §7, §8, §9

Caco-2 assay = format: in vitro ADME; conditions: human, 10 μM test compound, pH 7.4; for Papp A→B at 90 min, 10 μM: Caco-2, apical to basolateral (a-b) permeability, read-out: Caco PappAB; for efflux ratio at 90 min, 10 μM: Caco-2 efflux ratio PappBA/PappAB, read-out: Caco ER
Description: The assay provides information on the potential of a compound to pass the cell membrane, on the extent of oral absorption as well as on whether the compound is actively transported by uptake and/or efflux transporters. Permeability measurements across polarized, confluent Caco-2 cell monolayers grown on permeable filter supports (Corning, catalog #3391) are used. […] The receiver and donor compartments contain 0.25% bovine serum albumine (BSA) in assay buffer. Passive diffusion and/or active transport of compounds across the monolayer is measured in both apical to basolateral (a-b) and basolateral to apical (b-a) direction. a-b permeability (PappAB) represents drug absorption from the intestine into the blood and b-a permeability (PappBA) drug secretion from the blood back into the intestine via both passive permeability as well as active transport mechanisms mediated by efflux and uptake transporters that are expressed on the Caco-2 cells. After a pre-incubation of 25-30 min at 37° C., at predefined time points (0, 30, 60 and 90 min), samples were taken from the receiver and donor compartment, respectively.
Concentrations of test compounds in samples were measured by HPLC/MS/MS, samples from the donor compartment were diluted 1:50 (v:v) with assay buffer, samples from receiver compartment were measured without dilution.
Apparent permeabilities in a-b (PappAB) and b-a (PappBA) directions are calculated according to the formula:
[formula] • Vrec [mL]: buffer volume in receiver compartment • Cdon [pmol/mL]: concentration of test compound in donor compartment at t=0 • ΔCrec: difference between concentrations of test compound in receiver compartment at start and end of incubation time • Δt: Incubation time • Vrec·ΔCrec/Δt [[…]]: Amount of compound transferred to receiver compartment per time • A [cm^2]: filter surface
Caco-2 efflux ratios (ER) are calculated as the ratio of PappBA/PappAB.

T1 sequence (P01116 1-169 isoform P01116-2 G12C/C51S/C80L/C118S): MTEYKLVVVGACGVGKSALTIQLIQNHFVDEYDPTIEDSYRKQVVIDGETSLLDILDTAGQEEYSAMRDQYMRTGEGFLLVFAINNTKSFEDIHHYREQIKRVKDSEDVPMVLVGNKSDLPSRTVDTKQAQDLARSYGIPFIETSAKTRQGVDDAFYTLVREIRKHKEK
T2 sequence (P01116 1-169 isoform P01116-2 G12V/C118S): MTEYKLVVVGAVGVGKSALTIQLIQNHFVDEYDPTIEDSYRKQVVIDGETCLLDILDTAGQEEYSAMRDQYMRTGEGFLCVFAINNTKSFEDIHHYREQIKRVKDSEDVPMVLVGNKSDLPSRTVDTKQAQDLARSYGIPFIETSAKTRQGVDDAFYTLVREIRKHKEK

Row | SMILES | pIC50 (KRAS (G12C)::SOS1) | pIC50 (KRAS (G12V)::SOS1) | Papp A→B at 90 min, 10 μM (Caco-2 assay) [×10⁻⁶ cm/s] | efflux ratio at 90 min, 10 μM (Caco-2 assay)
1 | C[C@H](Oc1cc(O[C@H]2CNC(C)(C)C2)nc(-c2noc3c2CCC[C@@]32CCCc3sc(N)c(C#N)c32)n1)[C@@H]1CCCN1C (single isomer, unassigned) [II-8] | 8.70 | 8.00 | – | –
2 | C[C@H](Oc1cc(Oc2nccs2)nc(-c2onc3c2CCC[C@@]32CCCc3sc(N)c(C#N)c32)n1)[C@@H]1CCCN1C [Example I-1] | 9.00 | 8.70 | – | –
3 | C[C@H](Oc1cc(Oc2cccnc2)nc(-c2onc3c2CCC[C@@]32CCCc3sc(N)c(C#N)c32)n1)[C@@H]1CCCN1C [Example I-2] | 9.00 | 9.00 | – | –
4 | C[C@H](Oc1cc(Oc2cncnc2)nc(-c2onc3c2CCC[C@@]32CCCc3sc(N)c(C#N)c32)n1)[C@@H]1CCCN1C [Example I-3] | 9.00 | – | 18 | 1.3
5 | C[C@H](Oc1cc(N[C@H]2CCOC2)nc(-c2onc3c2CCC[C@@]32CCCc3sc(N)c(C#N)c32)n1)[C@@H]1CCCN1C [Example I-4] | 8.52 | – | – | –
6 | COC[C@H](C)Nc1cc(O[C@@H](C)[C@@H]2CCCN2C)nc(-c2onc3c2CCC[C@@]32CCCc3sc(N)c(C#N)c32)n1 [Example I-5] | 8.30 | – | 4.3 | 7.7
7 | C[C@H](Oc1cc(Nc2ccccn2)nc(-c2onc3c2CCC[C@@]32CCCc3sc(N)c(C#N)c32)n1)[C@@H]1CCCN1C [Example I-6] | 8.52 | – | – | 2.5
8 | C[C@H](Oc1cc(Sc2ncccn2)nc(-c2onc3c2CCC[C@@]32CCCc3sc(N)c(C#N)c32)n1)[C@@H]1CCCN1C [Example I-7] | 8.30 | – | – | –
9 | C[C@H](Oc1cc(OCC2(N(C)C)COC2)nc(-c2onc3c2CCC[C@@]32CCCc3sc(N)c(C#N)c32)n1)[C@@H]1CCCN1C [Example I-8] | 8.70 | 8.52 | – | –
10 | C[C@H](Oc1cc(Oc2cncnc2)nc(-c2noc3c2CCC[C@@]32CCCc3sc(N)c(C#N)c32)n1)[C@@H]1CCCN1C [II-1] | 9.00 | – | 17 | 1.5
11 | C[C@H](Oc1cc(Oc2nccs2)nc(-c2noc3c2CCC[C@@]32CCCc3sc(N)c(C#N)c32)n1)[C@@H]1CCCN1C [II-2] | 8.70 | – | – | 0.5
12 | C[C@H](Oc1cc(Oc2ccon2)nc(-c2noc3c2CCC[C@@]32CCCc3sc(N)c(C#N)c32)n1)[C@@H]1CCCN1C [II-3] | 8.70 | – | – | –
13 | C[C@H](Oc1cc(O[C@H]2CCOC2)nc(-c2noc3c2CCC[C@@]32CCCc3sc(N)c(C#N)c32)n1)[C@@H]1CCCN1C [II-4] | 8.70 | – | 8.6 | 3.7
14 | COCCOc1cc(O[C@@H](C)[C@@H]2CCCN2C)nc(-c2noc3c2CCC[C@@]32CCCc3sc(N)c(C#N)c32)n1 [II-5] | 8.70 | – | 14 | 1.4

— US20250129095A1, “ANNULATED 2-AMINO-3-CYANO THIOPHENES AND DERIVATIVES FOR THE TREATMENT OF CANCER” (Boehringer Ingelheim Int'l GmbH Corp., priority 2021, published 2025)
